Test results from patent publication US20240376108A1, “SALT AND CRYSTAL FORM OF PYRAZOLE-CONTAINING POLYCYCLIC DERIVATIVE, AND PREPARATION METHOD THEREFOR AND USE THEREOF” (Shanghai Hansoh Biomedical Co., Ltd., priority 2021, published 2024).

How the values were obtained:
[1] = Pharmacokinetic assay of the salt forms in rats (10 mg/kg); format: in vivo; conditions: SD rats; for exposure AUC and maximum plasma concentration Cmax compared with the free base: 10 mg/kg; for AUC(0-t) / MRT inf / half-life / Tmax / Cmax: male, rat, po, p.o. 10 mg/kg, plasma, vehicle 0.5% HPMC; for AUC(0-t): read-out: Area under curve AUC0-t; for MRT inf: read-out: Average residence time MRT0-∞; for half-life: read-out: Half life t1/2 (converted); for Tmax: read-out: Peak time tmax; for Cmax: read-out: Plasma concentration Cmax
Procedure: 2.3 Pharmacokinetic assay of the methanesulfonate in rats
2.3.1. Study objective: SD rats were used as test animals. The pharmacokinetic behavior of various salt forms of 2-(2-cyano-5-oxo-8-(trifluoromethyl)pyrazolo[1,5-a]pyrido[3,2-e]pyrimidin-4(5H)-yl)-N-(5-fluoropyridin-2-yl)acetamide was studied in rat body (plasma) by orally administration at a dose of 10 mg/kg.
2.3.2.4 Administration: After an overnight fast, male SD rats (3 rats per group) were administered p.o. with the test compound at a dose of 10 mg/kg and a volume of 10 mL/kg.
2.3.2.5 Sample collection: 0.2 mL of blood was taken from the jugular vein of the rat before administration and at 0, 0.5, 1, 2, 4, 6, 8 and 24 hours after administration. The samples were stored in EDTA-K2 tubes, and centrifuged for 6 minutes at 4° C., 6000 rpm to separate the plasma. The plasma samples were stored at −80° C.
1) 160 μL of acetonitrile was added to 40 μL of the plasma sample for precipitation, and then the mixture was centrifuged at 3500×g for 5 to 20 minutes.
2) After the above process, 100 μL of the supernatant was taken to analyze the concentration of the test compound by LC/MS/MS.
2.3.2.7 Liquid chromatography analysis • Liquid chromatography condition: Shimadzu LC-20AD pump • Mass spectrometry condition: AB Sciex API 4000 mass spectrometer • Chromatographic column: phenomenex Gemiu 5 um C18 50×4.6 mm • Mobile phase: Eluent A was 0.1% formic acid in water, and Eluent B was acetonitrile • Flow rate: 0.8 mL/min • Elution time: 0-4.0 minutes, the eluent is as follows:
The main parameters of pharmacokinetics were calculated by WinNonlin 8.2.

[2] = Hygroscopicity experiment (DVS); format: physicochemical; conditions: 25° C.
Description: 7.1 Hygroscopicity experiment of crystal forms of different salts of compound 2-(2-cyano-5-oxo-8-(trifluoromethyl)pyrazolo[1,5-a]pyrido[3,2-e]pyrimidin-4(5H)-yl)-N-(5-fluoropyridin-2-yl)acetamide
7.1.1 Experimental objective: To investigate the hygroscopicity of crystal forms of different salts of compound 2-(2-cyano-5-oxo-8-(trifluoromethyl)pyrazolo[1,5-a]pyrido[3,2-e]pyrimidin-4(5H)-yl)-N-(5-fluoropyridin-2-yl)acetamide at different relative humidity, so as to provide a basis for storage.
7.1.2 Experimental protocol: Crystal forms of different salts of the compound were placed in saturated water vapor with different relative humidity to achieve dynamic equilibrium between the compound and water vapor, and the percentage of hygroscopic weight gain of the compound after equilibrium was calculated.

[3] = Solid stability experiment (high temperature, high humidity, high temperature and high humidity); format: physicochemical
Procedure: 4.1.1 Experimental objective: To investigate the physical and chemical stability of the crystal form of the compound under the conditions of high temperature, high humidity, as well as high temperature and high humidity, so as to provide a basis for crystal form screening and storage of the crystal form of the compound.
The content of the salt was determined by HPLC using the external standard method, and the change of relevant substances was calculated by using the chromatographic peak area normalization method.

[4] = Cycle 1, target relative humidity 40.0%
[5] = Cycle 1, target relative humidity 50.0%
[6] = Cycle 1, target relative humidity 60.0%
[7] = Cycle 1, target relative humidity 70.0%
[8] = Cycle 1, target relative humidity 80.0%
[9] = Cycle 1, target relative humidity 90.0%
[10] = Cycle 1, target relative humidity 95.0%
[11] = Cycle 2, target relative humidity 0.0%
[12] = Cycle 2, target relative humidity 10.0%
[13] = Cycle 2, target relative humidity 20.0%
[14] = Cycle 2, target relative humidity 30.0%
[15] = Cycle 2, target relative humidity 40.0%
[16] = Cycle 1, target relative humidity 0.0%
[17] = Cycle 1, target relative humidity 10.0%
[18] = Cycle 1, target relative humidity 20.0%
[19] = Cycle 1, target relative humidity 30.0%
[20] = Cycle 2, target relative humidity 50.0%
[21] = Cycle 2, target relative humidity 60.0%
[22] = Cycle 2, target relative humidity 70.0%
[23] = Cycle 2, target relative humidity 80.0%
[24] = Cycle 2, target relative humidity 90.0%
[25] = Cycle 2, target relative humidity 95.0%
[26] = High humidity (92.5% RH), Day 7
[27] = High humidity (92.5% RH), Day 14
[28] = High temperature (60° C.), Day 7
[29] = High temperature (60° C.), Day 14
[30] = High temperature and high humidity (50° C.&75% RH), Day 7
[31] = High temperature and high humidity (50° C.&75% RH), Day 14

In the case of Br.N#Cc1cc2n(CC(=O)Nc3ccc(F)cn3)c(=O)c3ccc(C(F)(F)F)nc3n2n1 [Hydrobromide (crystal form B), 2-(2-cyano-5-oxo-8-(trifluoromethyl)pyrazolo[1,5-a]pyrido[3,2-e]pyrimidin-4(5H)-yl)-N-(5-fluoropyridin-2-yl)acetamide hydrobromide], the “exposure AUC and maximum plasma concentration Cmax compared with the free base” value [1] is reported as “superior”, the AUC(0-t) [1] is reported as 16.8 µg·h/mL and the MRT inf [1] is reported as 4.4 h. It also gave a half-life [1] of 2.6 h, a Tmax [1] of 1 h and a Cmax [1] of 2.47 µg/mL. The “% percentage of mass change, Desorption” value [2, 4] was 4.247%, the “% percentage of mass change, Sorption” value [2, 4] was 4.140% and the “% percentage of mass change, Desorption” value [2, 5] was 4.359%. For the same molecule, the “% percentage of mass change, Sorption” value [2, 5] was 4.233%, the “% percentage of mass change, Desorption” value [2, 6] was 4.448% and the “% percentage of mass change, Sorption” value [2, 6] was 4.321%. For the same molecule, the “% percentage of mass change, Desorption” value [2, 7] was 4.532%, the “% percentage of mass change, Sorption” value [2, 7] was 4.415% and the “% percentage of mass change, Desorption” value [2, 8] was 4.627%. For the same molecule, the “% percentage of mass change, Sorption” value [2, 8] was 4.529%, the “% percentage of mass change, Desorption” value [2, 9] was 4.787% and the “% percentage of mass change, Sorption” value [2, 9] was 4.715%. For the same molecule, the “% percentage of mass change, Desorption” value [2, 10] was 4.947%, the “% percentage of mass change, Sorption” value [2, 10] was 4.947% and the “% percentage of mass change, Desorption” value [2, 11] was −0.019%. For the same molecule, the “% percentage of mass change, Sorption” value [2, 11] was −0.007%, the “% percentage of mass change, Desorption” value [2, 12] was 0.124% and the “% percentage of mass change, Sorption” value [2, 12] was 0.070%. For the same molecule, the “% percentage of mass change, Desorption” value [2, 13] was 0.220%, the “% percentage of mass change, Sorption” value [2, 13] was 0.153% and the “% percentage of mass change, Desorption” value [2, 14] was 3.962%. For the same molecule, the “% percentage of mass change, Sorption” value [2, 14] was 3.900%, the “% percentage of mass change, Desorption” value [2, 15] was 4.112% and the “% percentage of mass change, Sorption” value [2, 15] was 4.030%.
For CCS(=O)(=O)O.N#Cc1cc2n(CC(=O)Nc3ccc(F)cn3)c(=O)c3ccc(C(F)(F)F)nc3n2n1 [Ethanesulfonate (crystal form A), 2-(2-cyano-5-oxo-8-(trifluoromethyl)pyrazolo[1,5-a]pyrido[3,2-e]pyrimidin-4(5H)-yl)-N-(5-fluoropyridin-2-yl)acetamide ethanesulfonate], the “exposure AUC and maximum plasma concentration Cmax compared with the free base” value [1] was “superior”, the AUC(0-t) [1] was 30.3 µg·h/mL and the MRT inf [1] was 4.9 h. For the same molecule, the half-life [1] was 2.6 h, the Tmax [1] was 4 h and the Cmax [1] was 3.84 µg/mL. For the same molecule, the “% percentage of mass change, Desorption” value [2, 16] was −0.012%, the “% percentage of mass change, Sorption” value [2, 16] was 0.000% and the “% percentage of mass change, Desorption” value [2, 17] was 0.042%. For the same molecule, the “% percentage of mass change, Sorption” value [2, 17] was 0.051%, the “% percentage of mass change, Desorption” value [2, 18] was 0.090% and the “% percentage of mass change, Sorption” value [2, 18] was 0.094%. For the same molecule, the “% percentage of mass change, Desorption” value [2, 19] was 0.137%, the “% percentage of mass change, Sorption” value [2, 19] was 0.139% and the “% percentage of mass change, Desorption” value [2, 4] was 0.192%. The “% percentage of mass change, Sorption” value [2, 4] was 0.183%, the “% percentage of mass change, Desorption” value [2, 5] was 0.260% and the “% percentage of mass change, Sorption” value [2, 5] was 0.231%. The “% percentage of mass change, Desorption” value [2, 6] was 0.334%, the “% percentage of mass change, Sorption” value [2, 6] was 0.297% and the “% percentage of mass change, Desorption” value [2, 7] was 0.442%. For the same molecule, the “% percentage of mass change, Sorption” value [2, 7] was 0.401%, the “% percentage of mass change, Desorption” value [2, 8] was 0.625% and the “% percentage of mass change, Sorption” value [2, 8] was 0.572%. For the same molecule, the “% percentage of mass change, Desorption” value [2, 9] was 1.135%, the “% percentage of mass change, Sorption” value [2, 9] was 1.025% and the “% percentage of mass change, Desorption” value [2, 10] was 1.927%. The “% percentage of mass change, Sorption” value [2, 10] was 1.927%, the “% percentage of mass change, Desorption” value [2, 11] was −0.016% and the “% percentage of mass change, Sorption” value [2, 11] was −0.012%. The “% percentage of mass change, Desorption” value [2, 12] was 0.035%, the “% percentage of mass change, Sorption” value [2, 12] was 0.037% and the “% percentage of mass change, Desorption” value [2, 13] was 0.083%. The “% percentage of mass change, Sorption” value [2, 13] was 0.083%, the “% percentage of mass change, Desorption” value [2, 14] was 0.130% and the “% percentage of mass change, Sorption” value [2, 14] was 0.127%. For the same molecule, the “% percentage of mass change, Desorption” value [2, 15] was 0.184%, the “% percentage of mass change, Sorption” value [2, 15] was 0.174% and the “% percentage of mass change, Desorption” value [2, 20] was 0.250%. For the same molecule, the “% percentage of mass change, Sorption” value [2, 20] was 0.228%, the “% percentage of mass change, Desorption” value [2, 21] was 0.321% and the “% percentage of mass change, Sorption” value [2, 21] was 0.295%. For the same molecule, the “% percentage of mass change, Desorption” value [2, 22] was 0.421%, the “% percentage of mass change, Sorption” value [2, 22] was 0.388% and the “% percentage of mass change, Desorption” value [2, 23] was 0.584%. For the same molecule, the “% percentage of mass change, Sorption” value [2, 23] was 0.541%, the “% percentage of mass change, Desorption” value [2, 24] was 1.020% and the “% percentage of mass change, Sorption” value [2, 24] was 0.942%. For the same molecule, the “% percentage of mass change, Desorption” value [2, 25] was 1.683%, the “% percentage of mass change, Sorption” value [2, 25] was 1.683% and the “solid stability under high temperature” value ([3]; 60° C., 7 and 14 days) was “stable”. The “solid stability under high humidity” value ([3]; 92.5% RH, 7 and 14 days) was “stable”, the “% increase of total impurities” value [3, 26] was under 0.1% and the “% maximum increase of single impurity” value [3, 26] was under 0.1%. For the same molecule, the “% increase of total impurities” value [3, 27] was under 0.1%, the “% maximum increase of single impurity” value [3, 27] was under 0.1% and the “% increase of total impurities” value [3, 28] was over 0.2%. The “% maximum increase of single impurity” value [3, 28] was under 0.1%, the “% increase of total impurities” value [3, 29] was under 0.1% and the “% maximum increase of single impurity” value [3, 29] was under 0.1%. The “% increase of total impurities” value [3, 30] was over 0.3%, the “% maximum increase of single impurity” value [3, 30] was over 0.1% and the “% increase of total impurities” value [3, 31] was over 0.2%. For the same molecule, the “% maximum increase of single impurity” value [3, 31] was over 0.1%.
